Patent publication US20160015036A1, “Methods and apparatuses related to pre- and post-dip teat treatment in milking facilities” (Aqua Access LLC, priority 2013, published 2016)

Experiments:
E. coli cells = details: 100 ppm hypochlorite applied for 1 min.; cited from earlier work
E. coli = test: Bacteriocidal activity tests of colloidal disinfectant mix at low/intermediate/high FAC, E. coli; assay type: cell-based, Escherichia coli; details: 200-300 ppm FAC in viscous post-dip solutions; 30 seconds
Method: (§1) FIG. 4 is an illustration of a test for bacteriocidal activity.
(§2) Colloid-based disinfectant mixing procedures were established as follows. Step 1—Mix 2 g GA into 90 mL of water, leave with constant slow mixing for 1 hour. Step 2—Generate chlorine-based oxidant by salt brine electrolysis. Measure FAC concentration by the Hach DPD technique. Step 3—Dilute free chlorine solution from fresh electrolyzed brine solution. Final FAC concentration to be 200 ppm or 300 ppm. Step 4—Add 1 g of pure lanolin (with no additives), fill up the volume to 100 mL. Mix with slow stirring or on a rotary carousel for another hour. If needed, add Brilliant Blue (food-grade) dye during the last mixing. Ready. Store at ambient temperature for up to 48 hours or 72 hours.
(§3) Also, 400 ppm FAC in the disinfectant colloid mix causes 7-log inactivation of E. coli, and 200 ppm FAC is sufficient for 6-log inactivation of S. aures. Higher FAC concentrations can be useful in pre-dip solutions for teat wash. 200-300 ppm FAC, which holds for a long time upon storage, can be sufficient for post-dip solutions. Note that the tests were performed under controlled laboratory conditions. Field test data might support the data, or might indicate that higher FAC concentrations are necessary.

S. aures = test: Bacteriocidal activity tests of colloidal disinfectant mix at low/intermediate/high FAC, S. aureus; assay type: cell-based, Staphylococcus aureus; details: 200-300 ppm FAC in viscous post-dip solutions; 30 seconds
Method: as §1, §2, §3

SMILES: OCl [sodium hypochlorite]
- E. coli cells killed (E. coli cells): 10^6 cells
- log inactivation of Escherichia coli (E. coli): 6 log
- log inactivation of Staphylococcus aureus (S. aures): 6 log
